Measured values reported in patent US9499550B2 (BRISTOL-MYERS SQUIBB COMPANY, priority 2012, dated 2016).
Like-named read-outs stand apart in the source and are kept apart here.

Tests used:
[1] = system: HCV genotype 1a (H77 strain) replicon in HUH-7 cells; test: HCV replicon luciferase reporter assay, genotype 1a; format: cell-based; details: Hepatitis C virus, Huh-7, 72 h, HCV genotype 1a replicon luciferase, 3 days incubation
Method in brief: (§1)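 Replicon inhibition for both genotypes was measured as Renilla luciferase signal (EnduRen, 7.5 μM final, 2 h) after 3-day, 37° C exposure of replicon-bearing HUH-7 cells in 4% FCS DMEM, 0.5% DMSO. The 1b construct carries S1179I; the 1a H77 construct carries P1496L and S2204I. Twenty-point, 3-fold dilutions were fitted four-parametrically for EC50, and CC50 was taken from multiplexed Cell Titer-Blue.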

[2] = system: HCV genotype 1b (Con1) replicon in HUH-7 cells; test: HCV replicon luciferase reporter assay, genotype 1b; format: cell-based; details: Hepatitis C virus, Huh-7, 72 h, HCV genotype 1b replicon luciferase, 3 days incubation
Method in brief: as §1

Row | Structure (SMILES) | EC50 ([1]; read-out: LE_1a (EC50, range)) | EC50 ([2]; read-out: LE_1b (EC50, range)) | EC50 ([1]; read-out: LE_1a (EC50)) | EC50 ([2]; read-out: LE_1b (EC50))
1 | CCn1nc(O[C@@H]2C[C@H]3C(=O)N[C@]4(C(=O)NS(=O)(=O)C5(C)CC5)C[C@H]4/C=C\CC[C@@H](C)C[C@@H](C)[C@H](NC(=O)OC(C)(C)C(F)(F)F)C(=O)N3C2)c2ccccc2c1=O [Compound 5053, 1,1,1-trifluoro-2-methylpropan-2-yl((2R,6S,7R,9R,13aS,14aR,16aS,Z)-2-((3-ethyl-4-oxo-3,4-dihydrophthalazin-1-yl)oxy)-7,9-dimethyl-14a-(((1-methylcyclopropyl)sulfonyl)carbamoyl)-5,16-dioxo-1,2,3,5,6,7,8,9,10,11,13a,14,14a,15,16,16a-hexadecahydrocyclopropa[e]pyrrolo[1,2-a][1,4]diazacyclopentadecin-6-yl)carbamate] | 4.82 to 103 nM | < 5.46 nM | – | –
2 | [2H]C([2H])([2H])C(OC(=O)N[C@@H]1C(=O)N2C[C@H](Oc3nn(CC)c(=O)c4ccccc34)C[C@H]2C(=O)N[C@]2(C(=O)NS(=O)(=O)C3(C)CC3)C[C@H]2/C=C\CC[C@H](C)C[C@H]1C)(C([2H])([2H])[2H])C(F)(F)F [Compound 5054] | > 87.4 nM | > 87.4 nM | – | –
3 | [2H]C([2H])([2H])C(OC(=O)N[C@@H]1C(=O)N2C[C@H](Oc3nn(CC)c(=O)c4ccccc34)C[C@H]2C(=O)N[C@]2(C(=O)NS(=O)(=O)C3(C)CC3)C[C@H]2/C=C\CC[C@@H](C)C[C@H]1C)(C([2H])([2H])[2H])C(F)(F)F [Compound 5055] | 4.82 to 103 nM | < 5.46 nM | – | –
4 | CCn1nc(O[C@@H]2C[C@H]3C(=O)N[C@]4(C(=O)NS(=O)(=O)C5(C)CC5)C[C@H]4/C=C\CC[C@H](C)C[C@@H](C)[C@H](NC(=O)O[C@@H]4C[C@@H]5C[C@@H]5C4)C(=O)N3C2)c2ccccc2c1=O [Compound 5056, (1R,3r,5S)-bicyclo[3.1.0]hexan-3-yl((2R,6S,7R,9S,13aS,14aR,16aS,Z)-2-((3-ethyl-4-oxo-3,4-dihydrophthalazin-1-yl)oxy)-7,9-dimethyl-14a-(((1-methylcyclopropyl)sulfonyl)carbamoyl)-5,16-dioxo-1,2,3,5,6,7,8,9,10,11,13a,14,14a,15,16,16a-hexadecahydrocyclopropa[e]pyrrolo[1,2-a][1,4]diazacyclopentadecin-6-yl)carbamate] | > 87.4 nM | 4.82 to 103 nM | 256 nM | 61 nM
5 | CCn1nc(O[C@@H]2C[C@H]3C(=O)N[C@]4(C(=O)NS(=O)(=O)C5(C)CC5)C[C@H]4/C=C\CC[C@@H](C)C[C@@H](C)[C@H](NC(=O)O[C@@H]4C[C@@H]5C[C@@H]5C4)C(=O)N3C2)c2ccccc2c1=O [Compound 5057, (1R,3r,5S)-bicyclo[3.1.0]hexan-3-yl((2R,6S,7R,9R,13aS,14aR,16aS,Z)-2-((3-ethyl-4-oxo-3,4-dihydrophthalazin-1-yl)oxy)-7,9-dimethyl-14a-(((1-methylcyclopropyl)sulfonyl)carbamoyl)-5,16-dioxo-1,2,3,5,6,7,8,9,10,11,13a,14,14a,15,16,16a-hexadecahydrocyclopropa[e]pyrrolo[1,2-a][1,4]diazacyclopentadecin-6-yl)carbamate] | < 5.46 nM | < 5.46 nM | – | –
6 | CCn1nc(O[C@@H]2C[C@H]3C(=O)N[C@]4(C(=O)NS(=O)(=O)C5(C)CC5)C[C@H]4/C=C\CC[C@H](C)C[C@@H](C)[C@H](NC(=O)NC(C)(C)C)C(=O)N3C2)c2ccccc2c1=O [Compound 5058, (2R,6S,7R,9S,13aS,14aR,16aS,Z)-6-(3-(tert-butyl)ureido)-2-((3-ethyl-4-oxo-3,4-dihydrophthalazin-1-yl)oxy)-7,9-dimethyl-N-((1-methylcyclopropyl)sulfonyl)-5,16-dioxo-1,2,3,5,6,7,8,9,10,11,13a,14,14a,15,16,16a-hexadecahydrocyclopropa[e]pyrrolo[1,2-a][1,4]diazacyclopentadecine-14a-carboxamide] | > 87.4 nM | > 87.4 nM | – | –
7 | CCn1nc(O[C@@H]2C[C@H]3C(=O)N[C@]4(C(=O)NS(=O)(=O)C5(C)CC5)C[C@H]4/C=C\CC[C@@H](C)C[C@@H](C)[C@H](NC(=O)NC(C)(C)C)C(=O)N3C2)c2ccccc2c1=O [Compound 5059, (2R,6S,7R,9R,13aS,14aR,16aS,Z)-6-(3-(tert-butyl)ureido)-2-((3-ethyl-4-oxo-3,4-dihydrophthalazin-1-yl)oxy)-7,9-dimethyl-N-((1-methylcyclopropyl)sulfonyl)-5,16-dioxo-1,2,3,5,6,7,8,9,10,11,13a,14,14a,15,16,16a-hexadecahydrocyclopropa[e]pyrrolo[1,2-a][1,4]diazacyclopentadecine-14a-carboxamide] | 4.82 to 103 nM | 4.82 to 103 nM | – | –
8 | CCn1nc(O[C@@H]2C[C@H]3C(=O)N[C@]4(C(=O)NS(=O)(=O)C5(C)CC5)C[C@H]4/C=C\CC[C@H](C)C[C@@H](C)[C@H](NC(=O)c4ccc(N(C)C)cc4)C(=O)N3C2)c2ccccc2c1=O [Compound 5060, (2R,6S,7R,9S,13aS,14aR,16aS,Z)-6-(4-(dimethylamino)benzamido)-2-((3-ethyl-4-oxo-3,4-dihydrophthalazin-1-yl)oxy)-7,9-dimethyl-N-((1-methylcyclopropyl)sulfonyl)-5,16-dioxo-1,2,3,5,6,7,8,9,10,11,13a,14,14a,15,16,16a-hexadecahydrocyclopropa[e]pyrrolo[1,2-a][1,4]diazacyclopentadecine-14a-carboxamide] | > 87.4 nM | > 87.4 nM | ≥ 1000 nM | 950 nM
9 | CCn1nc(O[C@@H]2C[C@H]3C(=O)N[C@]4(C(=O)NS(=O)(=O)C5(C)CC5)C[C@H]4/C=C\CC[C@@H](C)C[C@@H](C)[C@H](NC(=O)c4ccc(N(C)C)cc4)C(=O)N3C2)c2ccccc2c1=O [Compound 5061, (2R,6S,7R,9R,13aS,14aR,16aS,Z)-6-(4-(dimethylamino)benzamido)-2-((3-ethyl-4-oxo-3,4-dihydrophthalazin-1-yl)oxy)-7,9-dimethyl-N-((1-methylcyclopropyl)sulfonyl)-5,16-dioxo-1,2,3,5,6,7,8,9,10,11,13a,14,14a,15,16,16a-hexadecahydrocyclopropa[e]pyrrolo[1,2-a][1,4]diazacyclopentadecine-14a-carboxamide] | 4.82 to 103 nM | 4.82 to 103 nM | – | –
10 | CCn1nc(O[C@@H]2C[C@H]3C(=O)N[C@]4(C(=O)NS(=O)(=O)C5(C)CC5)C[C@H]4/C=C\CC[C@H](C)C[C@@H](C)[C@H](NC(=O)C(=O)N(C)C)C(=O)N3C2)c2ccccc2c1=O [Compound 5062, N1-((2R,6S,7R,9S,13aS,14aR,16aS,Z)-2-((3-ethyl-4-oxo-3,4-dihydrophthalazin-1-yl)oxy)-7,9-dimethyl-14a-(((1-methylcyclopropyl)sulfonyl)carbamoyl)-5,16-dioxo-1,2,3,5,6,7,8,9,10,11,13a,14,14a,15,16,16a-hexadecahydrocyclopropa[e]pyrrolo[1,2-a][1,4]diazacyclopentadecin-6-yl)-N2,N2-dimethyloxalamide] | > 87.4 nM | > 87.4 nM | ≥ 1000 nM | 1000 nM
11 | CCn1nc(O[C@@H]2C[C@H]3C(=O)N[C@]4(C(=O)NS(=O)(=O)C5(C)CC5)C[C@H]4/C=C\CC[C@@H](C)C[C@@H](C)[C@H](NC(=O)C(=O)N(C)C)C(=O)N3C2)c2ccccc2c1=O [Compound 5063, N1-((2R,6S,7R,9R,13aS,14aR,16aS,Z)-2-((3-ethyl-4-oxo-3,4-dihydrophthalazin-1-yl)oxy)-7,9-dimethyl-14a-(((1-methylcyclopropyl)sulfonyl)carbamoyl)-5,16-dioxo-1,2,3,5,6,7,8,9,10,11,13a,14,14a,15,16,16a-hexadecahydrocyclopropa[e]pyrrolo[1,2-a][1,4]diazacyclopentadecin-6-yl)-N2,N2-dimethyloxalamide] | > 87.4 nM | > 87.4 nM | ≥ 1000 nM | 479 nM
12 | CCn1nc(O[C@@H]2C[C@H]3C(=O)N[C@]4(C(=O)NS(=O)(=O)C5(C)CC5)C[C@H]4/C=C\CC[C@H](C)C[C@@H](C)[C@H](NC(=O)OC(C)(C)C)C(=O)N3C2)c2ccccc2c1=O [Compound 5064, tert-butyl ((2R,6S,7R,9S,13aS,14aR,16aS,Z)-2-((3-ethyl-4-oxo-3,4-dihydrophthalazin-1-yl)oxy)-7,9-dimethyl-14a-(((1-methylcyclopropyl)sulfonyl)carbamoyl)-5,16-dioxo-1,2,3,5,6,7,8,9,10,11,13a,14,14a,15,16,16a-hexadecahydrocyclopropa[e]pyrrolo[1,2-a][1,4]diazacyclopentadecin-6-yl)carbamate] | > 87.4 nM | 4.82 to 103 nM | – | –
13 | CCn1nc(O[C@@H]2C[C@H]3C(=O)N[C@]4(C(=O)NS(=O)(=O)C5(C)CC5)C[C@H]4/C=C\CC[C@@H](C)C[C@@H](C)[C@H](NC(=O)OC(C)(C)C)C(=O)N3C2)c2ccccc2c1=O [Compound 5065, tert-butyl ((2R,6S,7R,9R,13aS,14aR,16aS,Z)-2-((3-ethyl-4-oxo-3,4-dihydrophthalazin-1-yl)oxy)-7,9-dimethyl-14a-(((1-methylcyclopropyl)sulfonyl)carbamoyl)-5,16-dioxo-1,2,3,5,6,7,8,9,10,11,13a,14,14a,15,16,16a-hexadecahydrocyclopropa[e]pyrrolo[1,2-a][1,4]diazacyclopentadecin-6-yl)carbamate] | 4.82 to 103 nM | < 5.46 nM | – | –
